# Measurements reported in ChEMBL document CHEMBL1201862, “PubChem BioAssay data set” (2004).
#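 Interpolation was linear, between the two tested concentrations surrounding the appropriate level; five concentrations were tested over 48 hours in 96-well plates. The concentration for 50% growth inhibition is given as GI50.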 Activity calls are given as the source filed them. No stated cut-off is given here; in the data, active = GI50 up to about 1.1 µM and inactive = higher.
# Tests used:
# Assay in all cases: inhibition of tumour cell growth, NCI panel, 48 h
# Malme-3M = system: Malme-3M
# RPMI-8226 = system: RPMI-8226
# CCRF-CEM = system: CCRF-CEM
# MOLT-4 = system: MOLT-4
# MDA-N = system: MDA-N
# HOP-92 = system: HOP-92
# RXF 393 = system: RXF 393
# DU-145 = system: DU-145
# COLO 205 = system: COLO 205
# Hs-578T = system: Hs-578T
# NCI-H23 = system: NCI-H23
# IGROV-1 = system: IGROV-1
# UACC-62 = system: UACC-62
# CAKI-1 = system: CAKI-1
# BT-549 = system: BT-549
# SK-MEL-2 = system: SK-MEL-2
# SK-MEL-5 = system: SK-MEL-5
# M14 = system: M14
# MCF7 = system: MCF7
Compound,GI50 (Malme-3M),GI50 (RPMI-8226),GI50 (CCRF-CEM),GI50 (MOLT-4),GI50 (MDA-N),GI50 (HOP-92),GI50 (RXF 393),GI50 (DU-145),GI50 (COLO 205),GI50 (Hs-578T),GI50 (NCI-H23),GI50 (IGROV-1),GI50 (UACC-62),GI50 (CAKI-1),GI50 (BT-549),GI50 (SK-MEL-2),GI50 (SK-MEL-5),GI50 (M14),GI50 (MCF7)
COc1cc(N(C)C)c(OC)cc1/C=C\c1ccnc2ccccc12,4.86 µM (inactive),2.71 µM (inactive),3.56 µM (inactive),3.4 µM (inactive),1.71 µM (inactive),2.74 µM (inactive),> 10 µM (inactive),3.46 µM (inactive),3.55 µM (inactive),3.25 µM (inactive),3.86 µM (inactive),0.824 µM (active),3.39 µM (inactive),6.38 µM (inactive),4.34 µM (inactive),2.66 µM (inactive),0.815 µM (active),4.93 µM (inactive),0.462 µM (active)
C[C@]12CC[C@H]3[C@@H](CCC4=C[C@@H](OC5OCC(OC6OC(CO)C(O)C(O)C6O)C(O)C5O)CC[C@@]43C=O)[C@@]1(O)CCC2C1=CC(=O)OC1 (stereo not given in full),0.59 µM (active),0.628 µM (active),0.244 µM (active),0.0986 µM (active),1.01 µM (active),1.11 µM (active),0.23 µM (active),0.435 µM (active),1.35 µM (inactive),0.522 µM (active),0.195 µM (active),0.351 µM (active),1.81 µM (inactive),0.347 µM (active),0.211 µM (active),1.62 µM (inactive),0.385 µM (active),1.21 µM (inactive),0.94 µM (active)
COC(=O)C1(Cc2ccccc2)Cc2ccc3c(c2C1=O)CCC3 (stereo not given),14.2 µM (inactive),25.4 µM (inactive),26.9 µM (inactive),20.6 µM (inactive),26.2 µM (inactive),20.8 µM (inactive),20.4 µM (inactive),> 75.3 µM (inactive),27.8 µM (inactive),3.95 µM (inactive),32.2 µM (inactive),> 72.9 µM (inactive),> 36.7 µM (inactive),9.73 µM (inactive),2.24 µM (inactive),18.1 µM (inactive),18.5 µM (inactive),25.1 µM (inactive),23.1 µM (inactive)
O=C(O)Cn1ccnc1[N+](=O)[O-],> 100 µM (inactive),> 100 µM (inactive),> 100 µM (inactive),> 100 µM (inactive),> 100 µM (inactive),> 100 µM (inactive),> 100 µM (inactive),> 100 µM (inactive),> 100 µM (inactive),> 100 µM (inactive),> 100 µM (inactive),> 100 µM (inactive),> 100 µM (inactive),> 100 µM (inactive),> 100 µM (inactive),> 100 µM (inactive),> 100 µM (inactive),> 100 µM (inactive),> 100 µM (inactive)
O=C(NCCCc1cn[nH]c(=O)n1)c1cccc2nc3ccccc3nc12,36.5 µM (inactive),> 100 µM (inactive),> 100 µM (inactive),33.3 µM (inactive),> 100 µM (inactive),75 µM (inactive),41.5 µM (inactive),63 µM (inactive),> 100 µM (inactive),> 100 µM (inactive),> 100 µM (inactive),> 100 µM (inactive),> 100 µM (inactive),> 100 µM (inactive),> 100 µM (inactive),> 100 µM (inactive),> 100 µM (inactive),> 100 µM (inactive),> 100 µM (inactive)
Cc1ccc(O)c(C2=NNC(c3cccc(Cl)c3)C2)c1 (stereo not given),37.8 µM (inactive),25.1 µM (inactive),31.8 µM (inactive),34 µM (inactive),28.3 µM (inactive),18.5 µM (inactive),19.4 µM (inactive),86.1 µM (inactive),> 100 µM (inactive),30.5 µM (inactive),50.1 µM (inactive),5.69 µM (inactive),39.7 µM (inactive),36.8 µM (inactive),> 100 µM (inactive),30 µM (inactive),54 µM (inactive),87.5 µM (inactive),23.2 µM (inactive)
C[C@H](CCC(=O)O)[C@H]1CC[C@H]2[C@@H]3[C@H](O)C[C@@H]4C[C@H](O)CC[C@]4(C)[C@H]3C[C@H](O)[C@]12C,> 100 µM (inactive),> 100 µM (inactive),> 100 µM (inactive),> 100 µM (inactive),> 100 µM (inactive),> 100 µM (inactive),> 100 µM (inactive),> 100 µM (inactive),> 100 µM (inactive),> 100 µM (inactive),> 100 µM (inactive),> 100 µM (inactive),> 100 µM (inactive),> 100 µM (inactive),> 100 µM (inactive),> 100 µM (inactive),> 100 µM (inactive),> 100 µM (inactive),> 100 µM (inactive)
S=C1Cc2cc3ccccc3nc2-c2ccccc2N1,27.5 µM (inactive),> 50.7 µM (inactive),> 100 µM (inactive),> 96.8 µM (inactive),5.13 µM (inactive),8.87 µM (inactive),8.65 µM (inactive),70.8 µM (inactive),54 µM (inactive),5.64 µM (inactive),23.9 µM (inactive),29 µM (inactive),8.45 µM (inactive),29.6 µM (inactive),> 33.8 µM (inactive),36.7 µM (inactive),44.8 µM (inactive),26.7 µM (inactive),38.9 µM (inactive)
CC(=O)Nc1c(C)cc2c(nc3n2CCC3OC(C)=O)c1[N+](=O)[O-] (stereo not given),> 100 µM (inactive),> 100 µM (inactive),> 100 µM (inactive),> 100 µM (inactive),> 100 µM (inactive),> 100 µM (inactive),7.98 µM (inactive),> 100 µM (inactive),> 100 µM (inactive),> 100 µM (inactive),> 100 µM (inactive),> 100 µM (inactive),> 100 µM (inactive),> 100 µM (inactive),> 100 µM (inactive),> 100 µM (inactive),> 100 µM (inactive),> 100 µM (inactive),> 100 µM (inactive)
Cc1cc(=O)oc2cc(OC(=O)Nc3ccccc3)ccc12,> 100 µM (inactive),25.4 µM (inactive),27.2 µM (inactive),40.8 µM (inactive),> 100 µM (inactive),29.3 µM (inactive),92.7 µM (inactive),76.9 µM (inactive),53.5 µM (inactive),64.4 µM (inactive),69.5 µM (inactive),69.8 µM (inactive),41.2 µM (inactive),> 100 µM (inactive),22.9 µM (inactive),> 100 µM (inactive),59 µM (inactive),> 100 µM (inactive),88.1 µM (inactive)
O=C(Sc1c(-c2ccccc2)c(=O)n(-c2ccccc2)c(=S)n1-c1ccccc1)c1ccco1,> 69.5 µM (inactive),33.8 µM (inactive),18.7 µM (inactive),27.5 µM (inactive),> 90.6 µM (inactive),> 52.2 µM (inactive),> 100 µM (inactive),> 100 µM (inactive),> 100 µM (inactive),> 73.5 µM (inactive),> 100 µM (inactive),> 100 µM (inactive),> 76.4 µM (inactive),> 100 µM (inactive),> 100 µM (inactive),> 100 µM (inactive),97.9 µM (inactive),> 100 µM (inactive),> 100 µM (inactive)
Nc1nc(N)c(/N=N/c2ccc(C(=O)O)c(O)c2)c(N)n1,> 100 µM (inactive),> 100 µM (inactive),> 100 µM (inactive),> 100 µM (inactive),> 100 µM (inactive),92.5 µM (inactive),> 100 µM (inactive),> 100 µM (inactive),> 100 µM (inactive),> 100 µM (inactive),> 100 µM (inactive),> 100 µM (inactive),> 100 µM (inactive),> 100 µM (inactive),> 100 µM (inactive),> 100 µM (inactive),> 100 µM (inactive),> 100 µM (inactive),61.4 µM (inactive)
CC[C@H](C)[C@@H]([C@@H](CC(=O)N1CCC[C@H]1[C@H](OC)[C@@H](C)C(=O)NCCc1ccccc1)OC)N(C)C(=O)C(NC(=O)[C@H](C(C)C)N(C)C)C(C)C (stereo not given in full),0.001 µM (active),0.000203 µM (active),0.000219 µM (active),0.000132 µM (active),3.46e-05 µM (active),0.0069 µM (active),0.000174 µM (active),0.000227 µM (active),9.16e-05 µM (active),0.000446 µM (active),0.000314 µM (active),0.000363 µM (active),0.000275 µM (active),0.00216 µM (active),0.000588 µM (active),0.000423 µM (active),4.18e-05 µM (active),0.000203 µM (active),4.54e-05 µM (active)
Brc1ccc(C2(N3CCCCC3)CCCCC2)s1,29.3 µM (inactive),19.6 µM (inactive),18.3 µM (inactive),16.4 µM (inactive),79.8 µM (inactive),19.7 µM (inactive),14.3 µM (inactive),56.6 µM (inactive),–,36.1 µM (inactive),37.3 µM (inactive),22.2 µM (inactive),35.5 µM (inactive),> 100 µM (inactive),30.5 µM (inactive),19 µM (inactive),0.561 µM (active),24.4 µM (inactive),30.9 µM (inactive)
